Here are results for 45 compounds from patent US8871767B2, “2-arylimidazo[1,2-B]pyridazine, 2-phenylimidazo[1,2-A]pyridine, and 2-phenylimidazo[1,2-A]pyrazine derivatives” (Hengrui (USA) Ltd., priority 2010, dated 2014).

Structures are written as SMILES.

This assay deals with Hedgehog pathway activation (GLi-luciferase reporter) in Shh Light II reporter cells. In words: Hedgehog pathway activation on Shh Light II reporter cells measured by luciferase activity. It is filed as cell-based. Particulars: Mus musculus, Shh Light II, hShh activation, read-out: Shh (IC50, inhibition of Hedgehog pathway activation). Summed up: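 Shh Light II reporter cells carrying a hedgehog-responsive GLi-luciferase reporter were stimulated either with 500 nM SAG, a direct Smoothened agonist, or with conditioned media containing human Sonic Hedgehog (hShh). Test compounds were evaluated for blocking this pathway activation, quantified by luciferase activity. Cell viability was monitored in parallel with the Celltiter-Blue® assay.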
As for `Cc1ccc(-c2cn3nc(-c4ccc(OCCCCC(=O)NO)cc4C(F)(F)F)ccc3n2)cc1NC(=O)C(C)(C)C` [Example 454, N-hydroxy-5-(4-(2-(4-methyl-3-pivalamidophenyl)imidazo[1,2-b]pyridazin-6-yl)-3-(trifluoromethyl)phenoxy)pentanamide], the IC50 stood at 2050 nM.

On to `Cc1ccc(-c2cn3nc(-c4cncc(O)c4)ccc3n2)cc1NC(=O)C(C)(C)C` [Example 405, N-(5-(6-(5-hydroxypyridin-3-yl)imidazo[1,2-b]pyridazin-2-yl)-2-methylphenyl)pivalamide], for which the IC50 stood at 1980 nM.

With `Cc1ccc(-c2cn3nc(Cl)ccc3n2)cc1NC(=O)C1(C)CC1` [compound 517], the 50% inhibitory concentration (IC50) is greater than 10000 nM.

Consider `Cc1ccc(-c2cn3nc(-c4ccc(-c5nnco5)cc4)ccc3n2)cc1NC(=O)C(C)(C)C` [compound 539], for which the IC50 worked out at 350 nM.

For `Cc1ccc(-c2cn3nc(-c4ccc(C(=O)O)cc4)ccc3n2)cc1NC(=O)C(C)(C)C` [compound 521], the IC50 was greater than 10000 nM.

For `Cc1ccc(-c2cn3nc(-c4c(C)nn(C)c4C)ccc3n2)cc1NC(=O)C(C)(C)C` [compound 503], the IC50 was determined as 330 nM.

`Cc1ccc(-c2cn3nc(N4CCC(NCCCCCC(=O)NO)C4)ccc3n2)cc1NC(=O)C(C)(C)C` (stereo not drawn) [Example 418, N-hydroxy-6-(1-(2-(4-methyl-3-pivalamidophenyl)imidazo[1,2-b]pyridazin-6-yl)pyrrolidin-3-ylamino)hexanamide]: the half-inhibitory concentration (IC50) is 1390 nM.

In the case of `Cc1ccc(-c2cn3nc(-c4ccc(O)cc4Cl)ccc3n2)cc1NC(=O)C(C)(C)C` [compound 548], the 50% inhibitory concentration (IC50) stood at 763 nM.

For the compound `Cc1ccc(-c2cn3nc(NS(=O)(=O)c4cccc(Br)c4)ccc3n2)cc1NC(=O)C(C)(C)C` [compound 595], the IC50 was 348 nM.

On to `Cc1ccc(-c2cn3nc(-c4cccnc4C(F)(F)F)ccc3n2)cc1-c1c(C)noc1C` [compound 507], for which the concentration for half-maximal inhibition (IC50) stood at 2500 nM.

For `CC(C)(C)C(=O)Nc1cc(-c2cn3nc(N4CC(F)(F)C4)ccc3n2)ccc1C(F)(F)F` [Example 315, N-(5-(6-(3,3-difluoroazetidin-1-yl)imidazo[1,2-b]pyridazin-2-yl)-2-(trifluoromethyl)phenyl)pivalamide], the IC50 was determined as 807 nM.

`Cc1ccc(-c2cn3nc(NCc4ccc(C(=O)NO)cc4)ccc3n2)cc1NC(=O)C(C)(C)C` [compound 604]: the IC50 turned out to be 157 nM.

As for `CCOC(=O)COc1cc(-c2ccc3nc(-c4ccc(C)c(NC(=O)C(C)(C)C)c4)cn3n2)cc(C(F)(F)F)n1` [Example 475, ethyl 2-(4-(2-(4-methyl-3-pivalamidophenyl)imidazo[1,2-b]pyridazin-6-yl)-6-(trifluoromethyl)pyridin-2-yloxy)acetate], the IC50 came out at 2610 nM.

In the case of `Cc1ccc(-c2cn3nc(-c4cccnc4C(F)(F)F)ccc3n2)cc1NS(=O)(=O)c1cccc(C=CC(=O)NO)c1` [compound 626, N-hydroxy-3-(3-(N-(2-methyl-5-(6-(2-(trifluoromethyl)pyridin-3-yl)imidazo[1,2-b]pyridazin-2-yl)phenyl)sulfamoyl)phenyl)acrylamide], the half-inhibitory concentration (IC50) was 2910 nM.

Consider `Cc1ccc(-c2cn3nc(-c4cc(C(F)(F)F)ccn4)ccc3n2)cc1NC(=O)C(C)(C)C` [Example 456, N-(2-methyl-5-(6-(4-(trifluoromethyl)pyridin-2-yl)imidazo[1,2-b]pyridazin-2-yl)phenyl)pivalamide], for which the IC50 amounted to 365 nM.

For the compound `CC(C)(C)C(=O)Nc1cc(-c2cn3nc(-c4cccnc4N4CCOCC4)ccc3n2)ccc1C(F)(F)F` [Example 335, N-(5-(6-(2-morpholinopyridin-3-yl)imidazo[1,2-b]pyridazin-2-yl)-2-(trifluoromethyl)phenyl)pivalamide], the IC50 came out at 1610 nM.

As to `Cc1ccc(-c2cn3nc(-c4ccc(NC(=O)CCCCCCC(=O)O)cc4)ccc3n2)cc1NC(=O)C(C)(C)C` [compound 561], the 50% inhibitory concentration (IC50) came to 2300 nM.

With `CCOC(=O)C=Cc1cccc(S(=O)(=O)Nc2cc(-c3cn4nc(C=CC(=O)OCC)ccc4n3)ccc2C)c1` [compound 608], the 50% inhibitory concentration (IC50) was found to be 2040 nM.

Regarding `Cc1ccc(-c2cn3nc(C=CC(=O)NO)ccc3n2)cc1NC(=O)C(C)(C)C` [compound 578], the half-maximal inhibitory concentration (IC50) came to 9280 nM.

With `Cc1ccc(-c2cn3nc(NC(=O)c4ncccc4Cl)ccc3n2)cc1NC(=O)C(C)(C)C` [compound 612], the IC50 worked out at 78 nM.

Regarding `CC(C)(C)C(=O)Nc1cc(-c2cn3nc(N4CCC(N)CC4)ccc3n2)ccc1C(F)(F)F` [Example 332, N-(5-(6-(4-aminopiperidin-1-yl)imidazo[1,2-b]pyridazin-2-yl)-2-(trifluoromethyl)phenyl)pivalamide], the IC50 came out at 698 nM.

In the case of `Cc1ccc(-c2cn3nc(-c4ccc(O)cc4C(F)(F)F)ccc3n2)cc1NC(=O)C(C)(C)C` [Example 409, N-(5-(6-(4-hydroxy-2-(trifluoromethyl)phenyl)imidazo[1,2-b]pyridazin-2-yl)-2-methylphenyl)pivalamide], the IC50 was found to be 236 nM.

`Cc1ccc(-c2cn3nc(-c4c(C)noc4C)ccc3n2)cc1NC(=O)C(C)(C)C` [compound 502]: the IC50 was 580 nM.

Regarding `Cc1ccc(-c2cn3nc(-c4ccc(C=CC(=O)O)cc4)ccc3n2)cc1NC(=O)C(C)(C)C` [compound 555], the IC50 came to 346 nM.

On to `Cc1ccc(-c2cn3nc(-c4ccc(O)cc4)ccc3n2)cc1NC(=O)C(C)(C)C` [compound 519], for which the 50% inhibitory concentration (IC50) is 1700 nM.

For the compound `CN1CCN(c2ccc3nc(-c4ccc(C(F)(F)F)c(NC(=O)C(C)(C)C)c4)cn3n2)CC1` [Example 316, N-(5-(6-(4-methylpiperazin-1-yl)imidazo[1,2-b]pyridazin-2-yl)-2-(trifluoromethyl)phenyl)pivalamide], the IC50 was found to be 937 nM.

Take `CC(=O)Nc1ncc(-c2cc(-c3cn4nc(-c5cccnc5C(F)(F)F)ccc4n3)ccc2C)s1` [compound 513]: the half-inhibitory concentration (IC50) was 376 nM.

Take `COC(=O)c1cccc(-c2ccc3nc(-c4ccc(C)c(NC(=O)C(C)(C)C)c4)cn3n2)c1` [compound 583]: the 50% inhibitory concentration (IC50) was determined as 742 nM.

Regarding `Cc1ccnc(F)c1-c1ccc2nc(-c3ccc(C(F)(F)F)c(NC(=O)C(C)(C)C)c3)cn2n1` [Example 342, N-(5-(6-(2-fluoro-4-methylpyridin-3-yl)imidazo[1,2-b]pyridazin-2-yl)-2-(trifluoromethyl)phenyl)pivalamide], the IC50 was found to be 409 nM.

`Cc1ccc(-c2cn3nc(-c4ccc(-c5nc(=O)[nH][nH]5)cc4C(F)(F)F)ccc3n2)cc1NC(=O)C(C)(C)C` [compound 590]: the 50% inhibitory concentration (IC50) was 456 nM.

Regarding `Cc1ccc(-c2cn3nc(-c4cccc(C(=O)O)c4)ccc3n2)cc1NC(=O)C(C)(C)C` [compound 528], the IC50 amounted to 5850 nM.

On to `CCOC(=O)C=Cc1cccc(S(=O)(=O)Nc2cc(-c3cn4nc(Cl)ccc4n3)ccc2C)c1` [compound 607], for which the concentration for half-maximal inhibition (IC50) stood at 2100 nM.

As to `Cc1ccc(-c2cn3nc(NC(=O)c4ccccn4)ccc3n2)cc1NC(=O)C(C)(C)C` [compound 611], the IC50 is 49 nM.

Take `CCOC(=O)CCCCCCNC1CCN(c2ccc3nc(-c4ccc(C)c(NC(=O)C(C)(C)C)c4)cn3n2)C1` (stereo not drawn) [Example 415, ethyl 7-(1-(2-(4-methyl-3-pivalamidophenyl)imidazo[1,2-b]pyridazin-6-yl)pyrrolidin-3-ylamino)heptanoate]: the concentration for half-maximal inhibition (IC50) was 1760 nM.

Consider `Cc1ccc(-c2cn3nc(-c4ccc(C(=O)O)cn4)ccc3n2)cc1NC(=O)C(C)(C)C` [Example 459, 6-(2-(4-methyl-3-pivalamidophenyl)imidazo[1,2-b]pyridazin-6-yl)nicotinic acid], for which the IC50 was determined as 9290 nM.

`C#Cc1ccc(-c2cn3nc(-c4ccccc4F)ccc3n2)cc1N` [Example 320, 2-ethynyl-5-(6-(2-fluorophenyl)imidazo[1,2-b]pyridazin-2-yl)aniline]: the 50% inhibitory concentration (IC50) came out at 9260 nM.

On to `CC(C)(C)C(=O)Nc1cc(-c2cn3nc(NC4CCCCC4O)ccc3n2)ccc1C(F)(F)F` (stereo not drawn) [Example 333, N-(5-(6-(2-hydroxycyclohexylamino)imidazo[1,2-b]pyridazin-2-yl)-2-(trifluoromethyl)phenyl)pivalamide], for which the IC50 stood at 893 nM.

Take `Cc1ccc(-c2cn3nc(-c4cccnc4C(F)(F)F)ccc3n2)cc1-c1cccc(C(F)(F)F)n1` [Example 441, 2-(4-methyl-3-(6-(trifluoromethyl)pyridin-2-yl)phenyl)-6-(2-(trifluoromethyl)pyridin-3-yl)imidazo[1,2-b]pyridazine]: the half-maximal inhibitory concentration (IC50) amounted to 2560 nM.

In the case of `CCOC(=O)C=Cc1cccc(-c2ccc3nc(-c4ccc(C)c(NC(=O)C(C)(C)C)c4)cn3n2)c1` [compound 551], the concentration for half-maximal inhibition (IC50) amounted to 364 nM.

Turning to `Cc1ccc(-c2cn3nc(-c4cccc(O)c4C(F)(F)F)ccc3n2)cc1NC(=O)C(C)(C)C` [Example 398, N-(5-(6-(3-hydroxy-2-(trifluoromethyl)phenyl)imidazo[1,2-b]pyridazin-2-yl)-2-methylphenyl)pivalamide], the IC50 came out at 681 nM.

As to `Cc1ccc(-c2cn3nc(-c4ccc(C(=O)O)cc4F)ccc3n2)cc1NC(=O)C(C)(C)C` [compound 523], the concentration for half-maximal inhibition (IC50) worked out at 9630 nM.

Consider `Cc1ccc(-c2cn3nc(Cl)ccc3n2)cc1NS(=O)(=O)c1cccc(C=CC(=O)NO)c1` [compound 617], for which the IC50 came to 8600 nM.

`CC(C)(C)C(=O)Nc1cc(-c2cn3nc(-c4cccc(CO)c4)ccc3n2)ccc1C(F)(F)F` [Example 323, N-(5-(6-(3-(hydroxymethyl)phenyl)imidazo[1,2-b]pyridazin-2-yl)-2-(trifluoromethyl)phenyl)pivalamide]: the IC50 was 2580 nM.

Consider `CCOC(=O)C=Cc1ccc(-c2ccc3nc(-c4ccc(C)c(NC(=O)C(C)(C)C)c4)cn3n2)cc1` [compound 552], for which the 50% inhibitory concentration (IC50) turned out to be 356 nM.

On to `C[C@@H]1CNCCN1c1ccc2nc(-c3ccc(C(F)(F)F)c(NC(=O)C(C)(C)C)c3)cn2n1` [Example 466, (R)-N-(5-(6-(2-methylpiperazin-1-yl)imidazo[1,2-b]pyridazin-2-yl)-2-(trifluoromethyl)phenyl)pivalamide], for which the IC50 was found to be 2020 nM.
